Measured values: US20200085050A1, “Acyclic Picolinamides as a Seed Treatment” (priority 2017, published 2020)
Like-named read-outs stand apart in the source and are kept apart here.

Assays:
Zymoseptoria tritici = test: Seed treatment, wheat leaf blotch (SEPTTR) foliar disease control; type: in vivo
Parastagonospora nodorum = test: Seed treatment, wheat glume blotch (LEPTNO) foliar disease control; type: in vivo
Puccinia triticina = test: Seed treatment, wheat brown rust (PUCCRT) foliar disease control; type: in vivo
[1] = system: Blumeria graminis f. sp. tritici; test: Seed treatment, wheat powdery mildew (ERYSGT) foliar disease control; type: in vivo
[2] = system: Blumeria graminis f. sp. hordei; test: Seed treatment, barley powdery mildew (ERYSGH) foliar disease control; type: in vivo
Rhynchosporium secalis = test: Seed treatment, barley scald (RHYNSE) foliar disease control; type: in vivo
Cochliobolus sativus = test: Seed treatment, spot blotch of barley (COCHSA) foliar disease control; type: in vivo
Erysiphe cichoracearum = test: Seed treatment, cucumber powdery mildew (ERYSCI) foliar disease control; type: in vivo
[3] = system: Colletotrichum lagenarium; test: Seed treatment, cucumber anthracnose (COLLLA) foliar disease control; type: in vivo
[4] = system: Pseudoperonospora cubensis; test: Seed treatment, cucumber downy mildew (PSEUCU) foliar disease control; type: in vivo
Pyricularia oryzae = type: in vivo; conditions: for PYRIOR rating of foliar disease control: rice
Rhizoctonia solani = test: Seed treatment, rice sheath blight (RHIZSO) foliar disease control; type: in vivo
Phakopsora pachyrhizi = test: Seed treatment, soybean rust (PHAKPA) foliar disease control; type: in vivo; conditions: at any rate, data not shown
[5] = in vivo
From the text: The treated seeds were planted in pots containing soil-less Metro mix within 2 weeks after treatment, and resultant seedling plants were inoculated with respective pathogens as described below. Four pots of the seedlings were inoculated for each treatment rate.

[6] = seed treatment 3.7 g ai/100 kg seeds
[7] = seed treatment 11 g ai/100 kg seeds
[8] = seed treatment 33.3 g ai/100 kg seeds
[9] = seed treatment 100 g ai/100 kg seeds
[10] = seed treatment 300 g ai/100 kg seeds
[11] = seed treatment, summary of Table 2
[12] = seed treatment, summary of Table 3
[13] = seed treatment, summary of Table 4
[14] = seed treatment, summary of Table 5

COc1ccnc(C(=O)N[C@@H](C)C(=O)O[C@@H](C)C(c2ccc(F)cc2)c2ccc(F)cc2)c1OC(C)=O [I, (S)-1,1-bis(4-fluorophenyl)propan-2-yl (3-acetoxy-4-methoxypicolinoyl)-L-alaninate]
SEPTTR rating of foliar disease control (Zymoseptoria tritici; [6]): A (76-100) | SEPTTR rating of foliar disease control (Zymoseptoria tritici; [7]): A (76-100) | SEPTTR rating of foliar disease control (Zymoseptoria tritici; [8]): A (76-100) | SEPTTR rating of foliar disease control (Zymoseptoria tritici; [9]): A (76-100) | SEPTTR rating of foliar disease control (Zymoseptoria tritici; [10]): A (76-100) | protection against leaf blotch (SEPTTR), in words (Zymoseptoria tritici; [11]): excellent protection | LEPTNO rating of foliar disease control (Parastagonospora nodorum; [6]): A (76-100) | LEPTNO rating of foliar disease control (Parastagonospora nodorum; [7]): A (76-100) | LEPTNO rating of foliar disease control (Parastagonospora nodorum; [8]): A (76-100) | LEPTNO rating of foliar disease control (Parastagonospora nodorum; [9]): A (76-100) | LEPTNO rating of foliar disease control (Parastagonospora nodorum; [10]): A (76-100) | protection against glume blotch (LEPTNO), in words (Parastagonospora nodorum; [11]): excellent protection | PUCCRT rating of foliar disease control (Puccinia triticina; [6]): D (0-25) | PUCCRT rating of foliar disease control (Puccinia triticina; [7]): D (0-25) | PUCCRT rating of foliar disease control (Puccinia triticina; [8]): D (0-25) | PUCCRT rating of foliar disease control (Puccinia triticina; [9]): C (26-50) | PUCCRT rating of foliar disease control (Puccinia triticina; [10]): A (76-100) | activity against brown rust (PUCCRT), in words (Puccinia triticina; [11]): moderate activity | ERYSGT rating of foliar disease control [1, 6]: D (0-25) | ERYSGT rating of foliar disease control [1, 7]: D (0-25) | ERYSGT rating of foliar disease control [1, 8]: B (51-75) | ERYSGT rating of foliar disease control [1, 9]: A (76-100) | ERYSGT rating of foliar disease control [1, 10]: A (76-100) | activity against powdery mildew (ERYSGT), in words [1, 11]: moderate activity | ERYSGH rating of foliar disease control [2, 6]: D (0-25) | ERYSGH rating of foliar disease control [2, 7]: A (76-100) | ERYSGH rating of foliar disease control [2, 8]: A (76-100) | ERYSGH rating of foliar disease control [2, 9]: A (76-100) | ERYSGH rating of foliar disease control [2, 10]: A (76-100) | activity on powdery mildew (ERYSGH), in words [2, 12]: excellent activity | RHYNSE rating of foliar disease control (Rhynchosporium secalis; [6]): D (0-25) | RHYNSE rating of foliar disease control (Rhynchosporium secalis; [7]): D (0-25) | RHYNSE rating of foliar disease control (Rhynchosporium secalis; [8]): C (26-50) | RHYNSE rating of foliar disease control (Rhynchosporium secalis; [9]): B (51-75) | RHYNSE rating of foliar disease control (Rhynchosporium secalis; [10]): A (76-100) | activity on barley scald (RHYNSE), in words (Rhynchosporium secalis; [12]): moderate activity | COCHSA rating of foliar disease control (Cochliobolus sativus; [6]): D (0-25) | COCHSA rating of foliar disease control (Cochliobolus sativus; [7]): D (0-25) | COCHSA rating of foliar disease control (Cochliobolus sativus; [8]): D (0-25) | COCHSA rating of foliar disease control (Cochliobolus sativus; [9]): D (0-25) | COCHSA rating of foliar disease control (Cochliobolus sativus; [10]): D (0-25) | activity on spot blotch (COCHSA), in words (Cochliobolus sativus; [12]): little activity | ERYSCI rating of foliar disease control (Erysiphe cichoracearum; [6]): D (0-25) | ERYSCI rating of foliar disease control (Erysiphe cichoracearum; [7]): D (0-25) | ERYSCI rating of foliar disease control (Erysiphe cichoracearum; [8]): D (0-25) | ERYSCI rating of foliar disease control (Erysiphe cichoracearum; [9]): B (51-75) | ERYSCI rating of foliar disease control (Erysiphe cichoracearum; [10]): A (76-100) | activity on powdery mildew (ERYSCI), in words (Erysiphe cichoracearum; [13]): moderate activity | COLLLA rating of foliar disease control [3, 6]: D (0-25) | COLLLA rating of foliar disease control [3, 7]: B (51-75) | COLLLA rating of foliar disease control [3, 8]: B (51-75) | COLLLA rating of foliar disease control [3, 9]: A (76-100) | COLLLA rating of foliar disease control [3, 10]: A (76-100) | activity on anthracnose (COLLLA), in words [3, 13]: strong activity | PSEUCU rating of foliar disease control [4, 6]: D (0-25) | PSEUCU rating of foliar disease control [4, 7]: D (0-25) | PSEUCU rating of foliar disease control [4, 8]: D (0-25) | PSEUCU rating of foliar disease control [4, 9]: D (0-25) | PSEUCU rating of foliar disease control [4, 10]: D (0-25) | activity on downy mildew (PSEUCU), in words [4, 13]: little activity | PYRIOR rating of foliar disease control (Pyricularia oryzae; [6]): B (51-75) | PYRIOR rating of foliar disease control (Pyricularia oryzae; [7]): B (51-75) | PYRIOR rating of foliar disease control (Pyricularia oryzae; [8]): A (76-100) | PYRIOR rating of foliar disease control (Pyricularia oryzae; [9]): A (76-100) | PYRIOR rating of foliar disease control (Pyricularia oryzae; [10]): A (76-100) | activity on rice blast (PYRIOR), in words (Pyricularia oryzae; [14]): strong activity | RHIZSO rating of foliar disease control (Rhizoctonia solani; [6]): D (0-25) | RHIZSO rating of foliar disease control (Rhizoctonia solani; [7]): D (0-25) | RHIZSO rating of foliar disease control (Rhizoctonia solani; [8]): D (0-25) | RHIZSO rating of foliar disease control (Rhizoctonia solani; [9]): D (0-25) | RHIZSO rating of foliar disease control (Rhizoctonia solani; [10]): D (0-25) | activity on rice sheath blight (RHIZSO), in words (Rhizoctonia solani; [14]): little activity | activity on Asian soybean rust (PHAKPA), in words (Phakopsora pachyrhizi): no activity | stunting or phytotoxicity [5]: no evidence of stunting or phytotoxicity
